Data set [1] concerns Hepatitis B virus. The data set is described as follows: Antiviral activity against hepatitis B virus infected Hep G2.2.15 cells assessed as inhibition of HBsAg secretion. The data set is classed as functional, organism-based. To be noted: HepG2 2.2.15.
Data set [2] is described as follows: Cytotoxicity against human Hep G2.2.15 cells. The data set is classed as cell-based, HepG2 2.2.15.
The test system of data set [3] is Hepatitis B virus. The data set is described as follows: Antiviral activity against hepatitis B virus infected Hep G2.2.15 cells assessed as inhibition of HBeAg secretion. The data set is classed as functional, organism-based. To be noted: HepG2 2.2.15.
Data set [4] can be described thus: Selectivity index, ratio of CC50 for human Hep G2.2.15 cells to IC50 for HBV surface antigen secretion. The data set is classed as functional.
Data set [5] is described as follows: Selectivity index, ratio of CC50 for human Hep G2.2.15 cells to IC50 for HBV e antigen secretion. The data set is classed as functional.

The source of these data is ChEMBL document CHEMBL1157443, “Synthesis and in vitro anti-hepatitis B virus activities of 4-aryl-6-chloro-quinolin-2-one and 5-aryl-7-chloro-1,4-benzodiazepine derivatives” (Bioorg Med Chem Lett, 2008).

As a reminder, the IC50 is the concentration that inhibits the measured activity by half. The term CC50 denotes the concentration at which the toxic effect on the cells reaches its halfway point. On to `O=C1CN2OC2(c2ccccc2)c2cc(Cl)ccc2N1` (stereo not given), for which the IC50 is 728 µM with Hepatitis B virus [1] and more than 3280 µM with Hepatitis B virus [3]. Further, the CC50 in data set [2] worked out at 946 µM. Besides, the “Ratio CC50/IC50” value is recorded as 1.3 in data set [4] and less than 1 in data set [5].
For `O=c1[nH]c2ccc(Cl)cc2c(-c2ccccc2Cl)c1CCO`, in that order: 74 µM, 449 µM, 1720 µM, 23 and 3.4.
Regarding `O=C1CN2OC2(c2ccccc2F)c2cc(Cl)ccc2N1` (stereo not given), the IC50 is 195 µM with Hepatitis B virus [1] and more than 3260 µM with Hepatitis B virus [3]. This compound also displayed a CC50 in data set [2] of 346 µM. In addition, the “Ratio CC50/IC50” value in data set [4] was 1.8; in data set [5], less than 1.
For `CC(=O)OC1N=C(c2ccccc2)c2cc(Cl)ccc2NC1=O` (stereo not given), in that order: 292 µM, more than 4260 µM, 678 µM, 2.3 and less than 1.
For `CC(=O)OC1N=C(c2ccccc2F)c2cc(Cl)ccc2NC1=O` (stereo not given), in that order: 160 µM, 1220 µM, 344 µM, 2.2 and less than 1.
As to `O=c1cc(-c2ccccc2F)c2cc(Cl)ccc2[nH]1`, the values for the IC50 in the data set with Hepatitis B virus [1] and with Hepatitis B virus [3] were 2840 µM and 2220 µM, respectively. The same compound displayed a CC50 in data set [2] of more than 5460 µM. For the same compound, the “Ratio CC50/IC50” value in data set [4] is more than 1.9; in data set [5], more than 2.4.
For `O=c1cc(-c2ccccc2Cl)c2cc(Cl)ccc2[nH]1`, in that order: 752 µM, more than 6000 µM, 6000 µM, 8 and less than 1.
Consider `O=C1CN2OC2(c2ccccc2Cl)c2cc(Cl)ccc2N1` (stereo not given), for which the IC50 in the data set on Hepatitis B virus [1] was found to be 355 µM; in the data set on Hepatitis B virus [3], 4490 µM. This compound gave a CC50 in data set [2] of 302 µM. Moreover, the “Ratio CC50/IC50” value in data set [4] and in data set [5] was less than 1 each time.
Regarding `Nc1c(-c2ccccc2F)c2cc(Cl)ccc2[nH]c1=O`, the values for the IC50 with Hepatitis B virus [1] and with Hepatitis B virus [3] were 56 µM and more than 3610 µM, respectively. Besides, the CC50 in data set [2] came to 767 µM. Also, the entries for the “Ratio CC50/IC50” value in data set [4] and in data set [5] were 14 and less than 1, respectively.
For the compound `Nc1c(-c2ccccc2Cl)c2cc(Cl)ccc2[nH]c1=O`, the IC50 in the data set with Hepatitis B virus [1] is 341 µM; with Hepatitis B virus [3], more than 5470 µM. The CC50 in data set [2] is 341 µM. In addition, the “Ratio CC50/IC50” value in data set [4] was 1; in data set [5], less than 1.
`Nc1ccn([C@@H]2CS[C@H](CO)O2)c(=O)n1` [LAMIVUDINE] registered a CC50 in data set [2] of 30000 µM. Also, the “Ratio CC50/IC50” value worked out at 2.6 in data set [4] and 1.2 in data set [5].
Regarding `CC(=O)Nc1c(-c2ccccc2F)c2cc(Cl)ccc2[nH]c1=O`, the IC50 was determined as 141 µM in the data set with Hepatitis B virus [1] and 79 µM in the data set with Hepatitis B virus [3]. In addition, the CC50 in data set [2] was 44 µM. Also, the “Ratio CC50/IC50” value in data set [4] and in data set [5] was less than 1 each time.
On to `O=c1cc(-c2ccccc2)c2cc(Cl)ccc2[nH]1`, for which the IC50 in the data set with Hepatitis B virus [1] is 485 µM; with Hepatitis B virus [3] it was more than 4140 µM. It took 1250 µM to reach half-maximal cytotoxicity in data set [2] (CC50). Further, the “Ratio CC50/IC50” value in data set [4] is 2.6; in data set [5] it was less than 1.
As for `CC(=O)OC1N=C(c2ccccc2Cl)c2cc(Cl)ccc2NC1=O` (stereo not given), the IC50 with Hepatitis B virus [1] was 167 µM; in the data set with Hepatitis B virus [3], 1940 µM. This compound showed a CC50 in data set [2] of 154 µM. Moreover, the “Ratio CC50/IC50” value in data set [4] and in data set [5] was less than 1 each time.
Turning to `CC(=O)Nc1c(-c2ccccc2Cl)c2cc(Cl)ccc2[nH]c1=O`, the IC50 in the data set on Hepatitis B virus [1] was determined as 129 µM; in the data set on Hepatitis B virus [3], 80 µM. Also, the CC50 in data set [2] amounted to 208 µM. The “Ratio CC50/IC50” value in data set [4] is on record as 1.6; in data set [5], 2.6.
For `O=C1CN=C(c2ccccc2Cl)c2cc(Cl)ccc2N1` [DELORAZEPAM], the IC50 with Hepatitis B virus [1] amounted to 76 µM; in the data set on Hepatitis B virus [3], 4080 µM. This compound registered a CC50 in data set [2] of 76 µM. The “Ratio CC50/IC50” value in data set [4] and in data set [5] was less than 1 in each case.
In the case of `O=C1CN=C(c2ccccc2F)c2cc(Cl)ccc2N1`, the results for the IC50 in the data set with Hepatitis B virus [1] and in the data set with Hepatitis B virus [3] were 294 µM and 5360 µM, respectively. This compound also came in with a 50% cytotoxic concentration (CC50) in data set [2] of 183 µM. The “Ratio CC50/IC50” value in data set [4] and in data set [5] was less than 1 throughout.
With `O=C1CN=C(c2ccccc2)c2cc(Cl)ccc2N1` [NORDAZEPAM], the IC50 in the data set on Hepatitis B virus [1] is 255 µM; in the data set with Hepatitis B virus [3] it was 835 µM.
With `Nc1c(-c2ccccc2)c2cc(Cl)ccc2[nH]c1=O`, the IC50 in the data set on Hepatitis B virus [1] was 67 µM; in the data set with Hepatitis B virus [3], more than 3990 µM. The compound further came in with a CC50 in data set [2] of 399 µM. Moreover, the “Ratio CC50/IC50” value in data set [4] is 6; in data set [5], less than 1.
For the compound `O=c1[nH]c2ccc(Cl)cc2c(-c2ccccc2)c1CCO`, the half-maximal inhibitory concentration (IC50) with Hepatitis B virus [1] came out at 300 µM; in the data set with Hepatitis B virus [3], 950 µM. Moreover, the CC50 in data set [2] was more than 4910 µM. Also, the “Ratio CC50/IC50” value is more than 16 in data set [4] and more than 5.2 in data set [5].
For `O=c1[nH]c2ccc(Cl)cc2c(-c2ccccc2F)c1CCO`, in that order: 187 µM, 545 µM, more than 2990 µM, more than 16 and more than 5.5.
For `CC(=O)Nc1c(-c2ccccc2)c2cc(Cl)ccc2[nH]c1=O`, in that order: 208 µM, 1870 µM, 239 µM, 1.1 and less than 1.
